# Legend:
# human NTPDase1 = molecular target: T1, human NTPDase1 (Homo sapiens, UniProt P49961); assay: Capillary electrophoresis assay for human NTPDase1; type: biochemical; conditions: ATP (100 μM) as substrate
# T1 sequence (P49961 1-510): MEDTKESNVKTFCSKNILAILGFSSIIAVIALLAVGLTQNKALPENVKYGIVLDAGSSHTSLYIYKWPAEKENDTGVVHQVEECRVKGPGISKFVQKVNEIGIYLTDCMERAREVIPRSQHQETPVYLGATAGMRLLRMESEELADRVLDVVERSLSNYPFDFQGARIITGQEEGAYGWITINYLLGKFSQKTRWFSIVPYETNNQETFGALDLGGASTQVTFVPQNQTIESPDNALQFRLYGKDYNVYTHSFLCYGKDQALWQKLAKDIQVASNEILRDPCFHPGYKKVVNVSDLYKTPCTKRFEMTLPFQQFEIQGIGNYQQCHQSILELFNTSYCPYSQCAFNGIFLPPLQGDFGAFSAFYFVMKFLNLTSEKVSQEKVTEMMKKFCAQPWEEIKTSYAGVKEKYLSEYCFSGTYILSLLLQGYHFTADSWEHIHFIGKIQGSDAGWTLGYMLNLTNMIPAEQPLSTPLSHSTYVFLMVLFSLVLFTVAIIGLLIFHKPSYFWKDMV
# Protocol: (§1) Inhibitory activity of the CD73 inhibitors 2 and 20 at human NTPDases 1, 2, 3, and 8 was investigated using ATP (100 μM) as a substrate according to previously published procedures.^24 ATP and 2 were co-incubated with recombinantly expressed human NTPDases at 37° C. for 30 min, and the enzymatic reaction was terminated by heating at 90° C. for 10 min. The amount of enzyme preparation was adjusted to ensure 10-20% of substrate conversion. The formed products were separated by capillary electrophoresis (CE) and individually quantitated by diode array detection (DAD) at a wavelength of 260 nm. For inhibition analysis, at least three independent experiments were performed each in triplicate. The inhibition of the enzyme activity was calculated in relation to the positive control without inhibitor and plotted by GraphPad Prism 8 software (GraphPad software, San Diego, CA, USA) (for results see Table 2 and Table 3).
# (§2) Test compounds were investigated at a concentration of 50 μM, and 100 μM ATP substrate according to published procedures.^24 Recombinantly expressed human NTPDases were employed. The amount of enzyme preparation was adjusted to ensure 10-20% of substrate conversion. […] The inhibition of the enzyme activity was calculated in relation to the positive control without inhibitor and plotted in GraphPad Prism 8 software (GraphPad software, San Diego, CA, USA). […]
# human NTPDase2 = molecular target: T2, human NTPDase2 (Homo sapiens, UniProt Q9Y5L3); assay: Capillary electrophoresis assay for human NTPDase2; type: biochemical; conditions: ATP (100 μM) as substrate
# T2 sequence (Q9Y5L3 1-495): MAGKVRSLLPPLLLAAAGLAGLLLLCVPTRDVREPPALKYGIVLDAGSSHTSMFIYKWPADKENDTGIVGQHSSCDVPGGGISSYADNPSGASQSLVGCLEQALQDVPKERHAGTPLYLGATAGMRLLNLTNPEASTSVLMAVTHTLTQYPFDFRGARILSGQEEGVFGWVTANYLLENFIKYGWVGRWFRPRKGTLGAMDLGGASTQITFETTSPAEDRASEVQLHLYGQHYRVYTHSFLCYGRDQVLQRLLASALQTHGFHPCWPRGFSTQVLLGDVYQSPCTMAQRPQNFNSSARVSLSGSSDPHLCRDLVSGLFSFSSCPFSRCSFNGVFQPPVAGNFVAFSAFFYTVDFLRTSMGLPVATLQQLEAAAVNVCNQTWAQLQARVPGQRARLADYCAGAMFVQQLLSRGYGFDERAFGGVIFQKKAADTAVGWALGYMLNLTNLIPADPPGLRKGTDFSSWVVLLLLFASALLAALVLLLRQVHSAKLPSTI
# Protocol: as §1, §2
# human NTPDase3 = molecular target: T3, human NTPDase3 (Homo sapiens, UniProt O75355); assay: Capillary electrophoresis assay for human NTPDase3; type: biochemical; conditions: ATP (100 μM) as substrate
# T3 sequence (O75355 1-529): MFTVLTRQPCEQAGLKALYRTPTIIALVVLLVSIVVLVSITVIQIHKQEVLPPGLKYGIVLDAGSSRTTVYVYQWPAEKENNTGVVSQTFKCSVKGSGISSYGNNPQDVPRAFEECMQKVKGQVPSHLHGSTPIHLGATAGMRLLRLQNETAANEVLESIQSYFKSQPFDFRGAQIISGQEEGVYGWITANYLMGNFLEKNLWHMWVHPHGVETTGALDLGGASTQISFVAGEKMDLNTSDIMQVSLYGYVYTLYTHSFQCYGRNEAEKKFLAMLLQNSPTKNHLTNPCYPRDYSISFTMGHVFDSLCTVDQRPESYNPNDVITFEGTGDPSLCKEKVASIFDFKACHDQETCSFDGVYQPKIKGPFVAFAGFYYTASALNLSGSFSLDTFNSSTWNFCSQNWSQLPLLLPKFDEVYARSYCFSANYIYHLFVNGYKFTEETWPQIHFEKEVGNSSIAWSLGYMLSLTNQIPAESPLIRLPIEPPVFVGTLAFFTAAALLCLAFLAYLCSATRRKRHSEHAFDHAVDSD
# Protocol: as §1, §2
# human P2Y12 receptor = molecular target: T4, human P2Y12 receptor (Homo sapiens, UniProt Q9H244); assay: β-arrestin recruitment assay at P2Y12 receptor; type: cell-based; conditions: CHO-PK1 cells; for IC50: 2-methylthio-ADP as agonist at EC80 (3 μM), read-out: Inhibition P2Y12 receptor IC50; for EC50: read-out: Activation P2Y12 receptor EC50
# T4 construct: host or cells: CHO-PK1 cells (so in the source)
# From the text: The interaction of 2 with the human P2Y12 receptor was investigated in a β-arrestin recruitment assay using the galactosidase complementation technology as previously described.^25-27 The human P2Y12 receptor was expressed in CHO-PK1 cells (Eurofins DiscoverX, Fremont, CA, USA). For results see Table 2 and Table 3.
# T4 sequence (Q9H244 whole entry): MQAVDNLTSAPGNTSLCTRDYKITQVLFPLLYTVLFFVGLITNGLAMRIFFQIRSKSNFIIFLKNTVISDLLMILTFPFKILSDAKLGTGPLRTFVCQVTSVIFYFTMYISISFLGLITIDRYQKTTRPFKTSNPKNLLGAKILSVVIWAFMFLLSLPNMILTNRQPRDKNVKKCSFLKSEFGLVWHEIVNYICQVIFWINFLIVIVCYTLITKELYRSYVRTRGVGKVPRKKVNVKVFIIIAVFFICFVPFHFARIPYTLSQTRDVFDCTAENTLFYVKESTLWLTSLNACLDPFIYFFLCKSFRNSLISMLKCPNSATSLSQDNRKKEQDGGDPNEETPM
IC50 (human NTPDase1) [µM],IC50 (human NTPDase2) [µM],IC50 (human NTPDase3) [µM],IC50 (human P2Y12 receptor) [µM],EC50 (human P2Y12 receptor) [µM],Compound
> 50,> 50,> 50,> 10,> 10,CCCN(Cc1ccc(-c2cn(CCF)nn2)cc1)c1nc(Cl)nc2c1ncn2[C@@H]1O[C@H](COP(=O)(O)CP(=O)(O)O)C(O)C1O (stereo partly shown) [Compound 2]
27.6,< 50,27.7,> 10,> 10,"O=C(NCCCCCCNC(=O)c1ccc2c(c1)C1(OC2=O)c2ccc(O)cc2Oc2cc(O)ccc21)c1ccc(CNc2nc(Cl)nc3c2ncn3[C@@H]2O[C@H](COP(=O)(O)CP(=O)(O)O)[C@@H](O)[C@H]2O)cc1 [Compound 20, (((((2R,3S,4R,5R)-5-(2-chloro-6-((4-((6-(3′,6′-dihydroxy-3-oxo-3H-spiro[isobenzofuran-1,9′-xanthene]-6-carboxamido)-hexyl)carbamoyl)benzyl)amino)-9H-purin-9-yl)-3,4-dihydroxytetrahydrofuran-2-yl)methoxy)(hydroxy)phosphoryl)methyl)phosphonic acid]"

# From patent US20250382322A1, “DIAGNOSTICS FOR DETECTING ECTO-5'-NUCLEOTIDASE (CD73)” (EBERHARD KARLS UNIVERSITÄT TÜBINGEN, priority 2022, published 2025)
